Legend:
[1] = tested on: Puccinia recondita f. sp. tritici; assay: Fungicidal activity against Puccinia recondita f. sp. tritici / wheat / leaf disc preventative (brown rust); type: in vivo; conditions: foliar, 200 ppm in the applied formulation, wheat leaf segments cv. Kanzler, preventative (inoculated 1 day after application), assessed 7 to 9 days after application, read-out: disease control compared to untreated control leaf disks
Method in brief: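 Wheat cv. Kanzler leaf segments on agar sprayed with formulated compound diluted in water, inoculated with P. recondita spores 1 day later. Incubated at 19C, 75% rh, 12 h light/12 h dark; scored 7 to 9 days after application as percent disease control versus untreated segments. Test rate 200 ppm.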

[2] = tested on: Uromyces viciae-fabae; assay: Fungicidal activity against Uromyces viciae-fabae / field bean / leaf disc preventative (faba-bean rust); type: in vivo; conditions: foliar, 288 h, 100 ppm in the applied formulation, field bean leaf discs, preventative (inoculated two hours after application), assessed 12 days after application, read-out: disease control compared to untreated control leaf discs
Description: Leaf disks or leaf segments of various plant species are cut from plants grown in a greenhouse. The cut leaf disks or segments are placed in multiwell plates (24-well format) onto water agar. The leaf disks are sprayed with a test solution before (preventative) or after (curative) inoculation. Compounds to be tested are prepared as DMSO solutions (max. 10 mg/ml) which are diluted to the appropriate concentration with 0.025% Tween20 just before spraying. The inoculated leaf disks or segments are incubated under defined conditions (temperature, relative humidity, light, etc.) according to the respective test system. A single evaluation of disease level is carried out 3 to 14 days after inoculation, depending on the pathosystem. Percent disease control relative to the untreated check leaf disks or segments is then calculated. General Examples of Liquid Culture Tests in Well Plates:
Example 5: Fungicidal Activity Against Uromyces viciae-fabae/Field Bean/Leaf Disc Preventative (Faba-Bean Rust)
Field bean leaf discs are placed on water agar in multiwell plates (96-well format) and 10 μl of the formulated test compound diluted in acetone and a spreader pipetted onto the leaf disc. Two hours after application leaf discs are inoculated by spraying a spore suspension on the lower leaf surface. The leaf discs are incubated in a climate cabinet at 22° C. with 18 hour day and 70% relative humidity. The activity of a compound is assessed as percent disease control compared to untreated when an appropriate level of disease damage appears in untreated check leaf disks (12 days after application).
The following compounds at 100 ppm in the applied formulation give at least 80% disease control in this test when compared to untreated control leaf discs under the same conditions, which show extensive disease development.

[3] = tested on: Glomerella laqenarium (Colletotrichum lagenarium); assay: Fungicidal activity against Glomerella lagenarium (Colletotrichum lagenarium) liquid culture / cucumber / preventative (anthracnose); type: cell-based; conditions: Colletotrichum orbiculare; 20 ppm in the applied formulation; liquid culture in PDB, 24° C., 3 to 4 days after application; read-out: disease control compared to untreated control (inhibition of growth measured photometrically)
Method in brief: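 Cryostored conidia mixed into potato dextrose broth and added to test compound (from DMSO solution) in microtiter plates. Incubated at 24 °C; growth inhibition read photometrically 3 to 4 days after application, as percent activity versus untreated check.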

[4] = tested on: Phakopsora pachyrhizi; assay: Fungicidal activity against Phakopsora pachyrhizi / soybean / leaf disc preventative (Asian soybean rust); type: in vivo; conditions: foliar, 200 ppm in the applied formulation, soybean leaf disks, preventative (inoculated one day after application), assessed 12 to 14 days after application, read-out: disease control compared to untreated control leaf disks
Method in brief: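 Soybean leaf discs on water agar sprayed with formulated compound diluted in water; spore suspension sprayed on lower leaf surface one day later. Incubated 24-36 h dark at 20° C, 75% rh, then 20° C, 12 h light/day, 75% rh. Percent disease control versus untreated scored 12 to 14 days after application.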

SMILES | pest or weed control at 200 ppm [1] [%] | pest or weed control at 100 ppm [2] [%] | inhibition at 20 ppm [3] [%] | pest or weed control at 200 ppm [4] [%]
O=C(Nc1nc(Br)n[nH]1)c1ccc(-c2noc(C(F)(F)F)n2)cc1F [Compound 5b.10, N-(3-bromo-1H-1,2,4-triazol-5-yl)-2-fluoro-4-[5-(trifluoromethyl)-1,2,4-oxadiazol-3-yl]benzamide] | ≥ 80 | ≥ 80 | ≥ 80 | –
CC(NC(=O)c1ccc(-c2noc(C(F)(F)F)n2)cc1Cl)C1CC1 (stereo not drawn) [Compound 2b.15, 2-chloro-N-(1-cyclopropylethyl)-4-[5-(trifluoromethyl)-1,2,4-oxadiazol-3-yl]benzamide] | ≥ 80 | ≥ 80 | – | ≥ 80
CCN1CCC[C@@H]1CNC(=O)c1ccc(-c2noc(C(F)(F)F)n2)cc1F [Compound 1b.1, N-[[(2R)-1-ethylpyrrolidin-2-yl]methyl]-2-fluoro-4-[5-(trifluoromethyl)-1,2,4-oxadiazol-3-yl]benzamide] | ≥ 80 | ≥ 80 | – | ≥ 80
CC1CCC(NC(=O)c2ccc(-c3noc(C(F)(F)F)n3)cc2)CC1 (stereo not drawn) [Compound 2a.6, N-(4-methylcyclohexyl)-4-[5-(trifluoromethyl)-1,2,4-oxadiazol-3-yl]benzamide] | ≥ 80 | ≥ 80 | – | ≥ 80
CCOc1ccc(CN(C(=O)c2ccc(-c3noc(C(F)(F)F)n3)cc2F)C(C)C)cc1OCC [Compound 4b.11, N-[(3,4-diethoxyphenyl)methyl]-2-fluoro-N-isopropyl-4-[5-(trifluoromethyl)-1,2,4-oxadiazol-3-yl]benzamide] | ≥ 80 | ≥ 80 | ≥ 80 | –
O=C(NCCc1cccs1)c1ccc(-c2noc(C(F)(F)F)n2)cc1Cl [Compound 5b.18, 2-chloro-N-[2-(2-thienyl)ethyl]-4-[5-(trifluoromethyl)-1,2,4-oxadiazol-3-yl]benzamide] | ≥ 80 | ≥ 80 | ≥ 80 | –
O=C(NC1(C2CC2)CC1)c1ccc(-c2noc(C(F)(F)F)n2)cc1F [Compound 2b.6, N-(1-cyclopropylcyclo-propyl)-2-fluoro-4-[5-(trifluoromethyl)-1,2,4-oxadiazol-3-yl]benzamide] | – | ≥ 80 | ≥ 80 | ≥ 80
O=C(NC1(C2CC2)CC1)c1ccc(-c2noc(C(F)(F)F)n2)cc1Cl [Compound 2b.16, 2-chloro-N-(1-cyclopropylcyclo-propyl)-4-[5-(trifluoromethyl)-1,2,4-oxadiazol-3-yl]benzamide] | ≥ 80 | ≥ 80 | – | –
O=C(NCC1CCOC1)c1ccc(-c2noc(C(F)(F)F)n2)cc1Cl (stereo not drawn) [Compound 1b.14, 2-chloro-N-(tetrahydrofuran-3-ylmethyl)-4-[5-(trifluoromethyl)-1,2,4-oxadiazol-3-yl]benzamide] | ≥ 80 | ≥ 80 | ≥ 80 | ≥ 80
COC(=O)CNC(=O)c1ccc(-c2noc(C(F)(F)F)n2)cc1 [Compound 3a.4, methyl 2-[[4-[5-(trifluoromethyl)-1,2,4-oxadiazol-3-yl]benzoyl]amino]acetate] | ≥ 80 | ≥ 80 | ≥ 80 | ≥ 80
O=C(NCc1ccc(F)c(Br)c1)c1ccc(-c2noc(C(F)(F)F)n2)cc1F [Compound 4b.13, N-[(3-bromo-4-fluoro-phenyl)methyl]-2-fluoro-4-[5-(trifluoromethyl)-1,2,4-oxadiazol-3-yl]benzamide] | ≥ 80 | ≥ 80 | – | –
O=C(NCCCCc1ccccc1)c1ccc(-c2noc(C(F)(F)F)n2)cc1F [Compound 4b.10, 2-fluoro-N-(4-phenylbutyl)-4-[5-(trifluoromethyl)-1,2,4-oxadiazol-3-yl]benzamide] | – | ≥ 80 | ≥ 80 | ≥ 80
C#CC1(NC(=O)c2ccc(-c3noc(C(F)(F)F)n3)cc2F)CCCCC1 [Compound 2b.2, N-(1-ethynylcyclohexyl)-2-fluoro-4-[5-(trifluoromethyl)-1,2,4-oxadiazol-3-yl]benzamide] | – | ≥ 80 | ≥ 80 | ≥ 80
O=C(NC1CCN(Cc2ccccc2)CC1)c1ccc(-c2noc(C(F)(F)F)n2)cc1F [Compound 1b.3, N-(1-benzyl-4-piperidyl)-2-fluoro-4-[5-(trifuoromethyl)-1,2,4-oxadiazol-3-yl]benzamide] | ≥ 80 | ≥ 80 | – | ≥ 80
O=C(Nc1cn[nH]c1)c1ccc(-c2noc(C(F)(F)F)n2)cc1F [Compound 5b.7, 2-fluoro-N-(1H-pyrazol-4-yl)-4-[5-(trifluoromethyl)-1,2,4-oxadiazol-3-yl]benzamide] | ≥ 80 | ≥ 80 | ≥ 80 | ≥ 80
O=C(NCCc1cccs1)c1ccc(-c2noc(C(F)(F)F)n2)cc1 [Compound 5a.7, N-[2-(2-thienyl)ethyl]-4-[5-(trifluoromethyl)-1,2,4-oxadiazol-3-yl]benzamide] | ≥ 80 | ≥ 80 | ≥ 80 | ≥ 80
COc1ccc(CNC(=O)c2ccc(-c3noc(C(F)(F)F)n3)cc2F)c(OC)c1 [Compound 4b.14, N-[(2,4-dimethoxyphenyl)methyl]-2-fluoro-4-[5-(trifluoromethyl)-1,2,4-oxadiazol-3-yl]benzamide] | ≥ 80 | ≥ 80 | – | –
O=C(NCC1CC(F)(F)C1(F)F)c1ccc(-c2noc(C(F)(F)F)n2)cc1Cl (stereo not drawn) [Compound 2b.14, 2-chloro-N-[(2,2,3,3-tetrafluorocyclo-butyl)methyl]-4-[5-(trifluoromethyl)-1,2,4-oxadiazol-3-yl]benzamide] | ≥ 80 | ≥ 80 | – | –
CC(C)(C)OC(=O)N1CCC(CNC(=O)c2ccc(-c3noc(C(F)(F)F)n3)cc2)CC1 [Compound 1a.11, tert-butyl 4-[[[4-[5-(trifluoromethyl)-1,2,4-oxadiazol-3-yl]benzoyl]amino]methyl]piperidine-1-carboxylate] | ≥ 80 | ≥ 80 | – | –
O=C(NC1(Cc2ccc(Cl)cc2)CC1)c1ccc(-c2noc(C(F)(F)F)n2)cc1 [Compound 2a.7, N-[1-[(4-chlorophenyl)methyl]cyclopropyl]-4-[5-(trifluoromethyl)-1,2,4-oxadiazol-3-yl]benzamide] | ≥ 80 | ≥ 80 | – | ≥ 80
CN(C(=O)c1ccc(-c2noc(C(F)(F)F)n2)cc1F)C1CCSC1 (stereo not drawn) [Compound 1b.8, 2-fluoro-N-methyl-N-tetrahydrothiophen-3-yl-4-[5-(trifluoromethyl)-1,2,4-oxadiazol-3-yl]benzamide] | ≥ 80 | ≥ 80 | – | –
CC1CCCC(NC(=O)c2ccc(-c3noc(C(F)(F)F)n3)cc2F)C1 (stereo not drawn) [Compound 2b.10, 2-fluoro-N-(3-methylcyclohexyl)-4-[5-(trifluoromethyl)-1,2,4-oxadiazol-3-yl]benzamide] | ≥ 80 | ≥ 80 | – | –
